Test results from patent publication US7135479B2, “Antidepressant azaheterocyclylmethyl derivatives of heterocycle-fused benzodioxans” (Wyeth, priority 2002, dated 2006).
Where a name gives a salt, the structure may show the parent alone. Read-outs that look alike come from different tables or passages of the source.

Tests used:
[1] = biological target: T1, serotonin transporter (Rattus norvegicus, UniProt P31652); experiment: 3H-paroxetine displacement from male rat frontal cortical membranes (affinity for the serotonin transporter); format: binding; settings: read-out: 5-HT Transporter Affinity KI
T1 construct: displace ^3H-paroxetine from male rat frontal cortical membranes; from tissue; host or cells: male rat frontal cortex membranes
T1 sequence (P31652 whole entry): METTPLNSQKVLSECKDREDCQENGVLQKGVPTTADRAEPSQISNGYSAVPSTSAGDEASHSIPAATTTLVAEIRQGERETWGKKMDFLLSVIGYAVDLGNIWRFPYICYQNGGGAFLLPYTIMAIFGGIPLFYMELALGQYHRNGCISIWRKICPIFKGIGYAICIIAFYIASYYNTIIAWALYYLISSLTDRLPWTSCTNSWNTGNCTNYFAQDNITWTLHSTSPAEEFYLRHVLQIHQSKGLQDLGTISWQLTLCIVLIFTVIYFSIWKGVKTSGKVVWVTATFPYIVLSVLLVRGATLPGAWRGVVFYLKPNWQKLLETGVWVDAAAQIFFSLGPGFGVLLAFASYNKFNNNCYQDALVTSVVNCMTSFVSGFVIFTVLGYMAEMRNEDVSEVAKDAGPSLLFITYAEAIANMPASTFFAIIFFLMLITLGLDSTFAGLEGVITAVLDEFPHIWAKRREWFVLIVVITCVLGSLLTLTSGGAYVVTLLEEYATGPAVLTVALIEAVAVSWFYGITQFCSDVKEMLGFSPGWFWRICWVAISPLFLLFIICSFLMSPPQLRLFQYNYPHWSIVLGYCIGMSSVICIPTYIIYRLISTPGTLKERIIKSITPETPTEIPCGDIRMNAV

[2] = biological target: T2, cloned human 5-HT1A receptors (Homo sapiens, UniProt P08908); experiment: 35S-GTPγS binding assay, antagonist activity at 5-HT1A receptors; format: biochemical; settings: for IC50: potency in reversing the effects of the standard agonist 8-OHDPAT, read-out: 5-HT1A Receptor Affinity IC50 (nM) (Imax): IC50; for Emax: read-out: 5-HT1A Receptor Affinity IC50 (nM) (Imax): Imax
T2 construct: expressed in transfected cells
T2 sequence (P08908 1-422): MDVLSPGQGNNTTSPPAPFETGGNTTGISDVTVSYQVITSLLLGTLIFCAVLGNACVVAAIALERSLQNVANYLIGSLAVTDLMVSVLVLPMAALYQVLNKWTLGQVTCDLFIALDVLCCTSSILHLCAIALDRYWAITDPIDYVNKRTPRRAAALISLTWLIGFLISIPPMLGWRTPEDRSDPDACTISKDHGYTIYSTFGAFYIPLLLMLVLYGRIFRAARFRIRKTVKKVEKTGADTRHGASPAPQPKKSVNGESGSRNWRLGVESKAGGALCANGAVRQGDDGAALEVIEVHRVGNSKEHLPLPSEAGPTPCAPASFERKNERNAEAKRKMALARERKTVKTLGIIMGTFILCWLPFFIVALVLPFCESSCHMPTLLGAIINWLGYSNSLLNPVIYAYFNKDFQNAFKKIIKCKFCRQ
Description: Antagonist activity at 5-HT1A receptors was established by using a ^35S-GTPγS binding assay similar to that used by Lazareno and Birdsall (Br. J. Pharmacol. 109: 1120, 1993), in which the test compound's ability to affect the binding of ^35S-GTPγS to membranes containing cloned human 5-HT1A receptors was determined. Agonists produce an increase in binding whereas antagonists produce no increase but rather reverse the effects of the standard agonist 8-OHDPAT. The test compound's maximum inhibitory effect is represented as the Imax, while its potency is defined by the IC50.

[3] = biological target: T3, human 5-HT1A receptors (Homo sapiens, UniProt P08908); experiment: [3H] 8-OHDPAT displacement from 5-HT1A receptor, CHO cells stably transfected with human 5-HT1A receptors; format: binding; settings: read-out: 5-HT1A Function KI
T3 construct: expressed in transfected cells; host or cells: CHO cells
T3 sequence (P08908 1-422): T2 sequence (P08908 1-422)
Excerpt: High affinity for the serotonin 5-HT1A receptor was established by testing the claimed compound's ability to displace [^3H] 8-OHDPAT (dipropylaminotetralin) from the 5-HT1A serotonin receptor following a modification of the procedure of Hall et al., J. Neurochem. 44, 1685 (1985) which utilizes CHO cells stably transfected with human 5-HT1A receptors.

[4] = value in brackets, maximum inhibitory effect

melting point	Ki [1] [nM]	IC50 [2] [nM]	Emax [2, 4] [%]	Ki [3] [nM]	Compound	Emax [2] [%]
138 °C (dec.)	–	–	–	–	Cc1ccc2c3c(ccc2n1)OCC(CN1CC(Cn2ccc4ccc(F)cc42)C1)O3 (stereo not shown) (as salt: salt) [Example 9, 2-[3-(6-Fluoro-indol-1-ylmethyl)-azetidin-1-ylmethyl]-8-methyl-2,3-dihydro-[1,4]dioxino[2,3-f]quinoline]	–
–	1.61	208	81.5	15.2	CCc1ccc2c3c(ccc2n1)OC[C@H](CN1CCC(Cn2ccc4ccc(F)cc42)CC1)O3 [Example 7]	–
50 °C (dec.)	–	–	–	–	Cc1ccc2c3c(ccc2n1)OCC(CN1CCCC(Cc2c[nH]c4cc(F)ccc24)C1)O3 (stereo not shown) (as salt: salt) [Example 3, 2-[3-(6-Fluoro-1H-indol-3-ylmethyl)-piperidin-1-ylmethyl]-8-methyl-2,3-dihydro-[1,4]dioxino[2,3-f]quinoline]	–
140 to 142 °C	–	–	–	–	Cc1ccc2c3c(ccc2n1)OC[C@H](CN1CCC(Cn2ccc4ccc(F)cc42)CC1)O3 (as salt: fumarate) [Example 6]	–
–	1.29	59.5	73.7	2.5	Cc1ccc2c3c(ccc2n1)OCC(CN1CC(Cc2c[nH]c4ccc(F)cc24)C1)O3 (stereo not shown) [Example 1, 2-[3-(5-Fluoro-1H-indol-3-ylmethyl)-azetidin-1-ylmethyl]-8-methyl-2,3-dihydro-[1,4]dioxino[2,3-f]quinoline]	–
–	15.3	552	100	3.3	Cc1ccc2c3c(ccc2n1)OCC(CN1CCCC(Cc2c[nH]c4ccc(F)cc24)C1)O3 (stereo not shown) [Example 2, 2-[3-(5-Fluoro-1H-indol-3-ylmethyl)-piperidin-1-ylmethyl]-8-methyl-2,3-dihydro-[1,4]dioxino[2,3-f]quinoline]	–
–	0.72	34.5	96.3	16.7	Cc1ccc2c3c(ccc2n1)OC[C@H](CN1CC(Cc2cn(C)c4ccc(F)cc24)C1)O3 [Example 5]	–
–	4.26	343	80	1.9	Cc1ccc2c3c(ccc2n1)OCC(CN1CC(CCn2ccc4ccc(F)cc42)C1)O3 (stereo not shown) [Example 10, 2-{3-[2-(6-Fluoro-indol-1-yl)-ethyl]-azetidin-1-ylmethyl}-8-methyl-2,3-dihydro-[1,4]dioxino[2,3-f]quinoline]	–
68 °C (dec.)	–	–	–	–	Cc1ccc2c3c(ccc2n1)OCC(CN1CCCC(Cc2c[nH]c4ccc(F)cc24)C1)O3 (stereo not shown) (as salt: hydrochloride) [Example 2, 2-[3-(5-Fluoro-1H-indol-3-ylmethyl)-piperidin-1-ylmethyl]-8-methyl-2,3-dihydro-[1,4]dioxino[2,3-f]quinoline]	–
193 to 195 °C	–	–	–	–	Cc1ccc2c3c(ccc2n1)OC[C@H](CN1CC(Cc2cn(C)c4ccc(F)cc24)C1)O3 (as salt: oxalate) [Example 5]	–
–	0.11	–	–	55	Cc1ccc2c3c(ccc2n1)OCC(CN1CC(Cn2ccc4ccc(F)cc42)C1)O3 (stereo not shown) [Example 9, 2-[3-(6-Fluoro-indol-1-ylmethyl)-azetidin-1-ylmethyl]-8-methyl-2,3-dihydro-[1,4]dioxino[2,3-f]quinoline]	–
178 to 180 °C	–	–	–	–	Cc1ccc2c3c(ccc2n1)OC[C@H](CN1CCC(Cn2ccc4ccc(C#N)cc42)CC1)O3 (as salt: fumarate) [Example 8]	–
> 250 °C	–	–	–	–	CCc1ccc2c3c(ccc2n1)OC[C@H](CN1CCC(Cn2ccc4ccc(F)cc42)CC1)O3 (as salt: hydrochloride) [Example 7]	–
–	2.86	251	85	1.52	Cc1ccc2c3c(ccc2n1)OC[C@H](CN1CC(CCn2ccc4ccc(C#N)cc42)C1)O3 [Example 11, 1-{2-[1-(8-Methyl-2,3-dihydro-[1,4]-dioxino[2,3-f]quinolin-2-ylmethyl)-azetinin-3-yl]-ethyl}-1H-indole-6-carbonitrile]	–
–	0.6	243	100	6.56	Cc1ccc2c3c(ccc2n1)OC[C@H](CN1CCC(Cn2ccc4ccc(C#N)cc42)CC1)O3 [Example 8]	–
–	15.1	666	100	3.4	Cc1ccc2c3c(ccc2n1)OCC(CN1CCCC(Cc2c[nH]c4cc(F)ccc24)C1)O3 (stereo not shown) [Example 3, 2-[3-(6-Fluoro-1H-indol-3-ylmethyl)-piperidin-1-ylmethyl]-8-methyl-2,3-dihydro-[1,4]dioxino[2,3-f]quinoline]	–
115 °C (dec.)	–	–	–	–	Cc1ccc2c3c(ccc2n1)OCC(CN1CC(CCn2ccc4ccc(F)cc42)C1)O3 (stereo not shown) (as salt: hydrochloride) [Example 10, 2-{3-[2-(6-Fluoro-indol-1-yl)-ethyl]-azetidin-1-ylmethyl}-8-methyl-2,3-dihydro-[1,4]dioxino[2,3-f]quinoline]	–
–	1.04	38.6	89.5	–	Cc1ccc2[nH]cc(CC3CN(C[C@H]4COc5ccc6nc(C)ccc6c5O4)C3)c2c1 [Example 12, 8-Methyl-2-[3-(5-methyl-1H-indol-3-ylmethyl)-azetidin-1-ylmethyl]-2,3-dihydro-[1,4]dioxino[2,3-f]quinoline]	–
144 °C (dec.)	–	–	–	–	Cc1ccc2c3c(ccc2n1)OC[C@H](CN1CC(CCn2ccc4ccc(C#N)cc42)C1)O3 (as salt: hydrochloride) [Example 11, 1-{2-[1-(8-Methyl-2,3-dihydro-[1,4]-dioxino[2,3-f]quinolin-2-ylmethyl)-azetinin-3-yl]-ethyl}-1H-indole-6-carbonitrile]	–
125 °C (dec.)	–	–	–	–	Cc1ccc2c3c(ccc2n1)OCC(CN1CC(Cc2c[nH]c4ccc(F)cc24)C1)O3 (stereo not shown) (as salt: hydrochloride) [Example 1, 2-[3-(5-Fluoro-1H-indol-3-ylmethyl)-azetidin-1-ylmethyl]-8-methyl-2,3-dihydro-[1,4]dioxino[2,3-f]quinoline]	–
–	1.01	242	85.5	9.55	Cc1ccc2c3c(ccc2n1)OC[C@H](CN1CCC(Cn2ccc4ccc(F)cc42)CC1)O3 [Example 6]	–

Compound	melting point	Ki [1] [nM]	IC50 [2] [nM]	Emax [2, 4] [%]	Ki [3] [nM]	Emax [2] [%]
Cc1ccc2c3c(ccc2n1)OCC(CN1CC(Cc2c[nH]c4ccccc24)C1)O3 (stereo not shown) [Example 4, 2-[3-(1H-Indol-3-ylmethyl)-azetidin-1-ylmethyl]-8-methyl-2,3-dihydro-[1,4]dioxino[2,3-f]quinoline]	–	0.56	37.2	–	9.2	76.4
